pIC50: −log10 of the molar value.
System: congestive heart failure in Dahl salt-sensitive rats
Experiment: not given
Details: rat, in vivo; cited from earlier work
In the case of `C[C@@H](N)[C@H]1CC[C@H](C(=O)Nc2ccncc2)CC1` [Example Y-27632, Y-27632], the “ventricular hypertrophy, fibrosis and function” value is listed as “improve ventricular hypertrophy, fibrosis and function”.

System: rat models of hypertension
Experiment: not given
Details: control rats; cited from earlier work
In the case of `C[C@@H](N)[C@H]1CC[C@H](C(=O)Nc2ccncc2)CC1` [Example Y-27632, Y-27632], the blood pressure is given as “only a minor effect”.

Same assay, conditions: spontaneously hypertensive rat, renal hypertensive rat and deoxycortisone acetate salt hypertensive rat models; cited from earlier work
For `C[C@@H](N)[C@H]1CC[C@H](C(=O)Nc2ccncc2)CC1` [Example Y-27632, Y-27632], the blood pressure is given as “significantly decrease blood pressure”.

System: rat stroke model
Experiment: not given
Details: in vivo; cited from earlier work
In the case of `O=S(=O)(c1cccc2cnccc12)N1CCCNCC1` [fasudil], the “infarct size and neurologic deficit” value is given as “reduce both the infarct size and neurologic deficit”.

System: neointimal formation
Experiment: not given
Details: rats; cited from earlier work
For `C[C@@H](N)[C@H]1CC[C@H](C(=O)Nc2ccncc2)CC1` [Example Y-27632, Y-27632], the neointimal formation is given as “inhibited neointimal formation”.

Target: ROCK2 (Homo sapiens, UniProt O75116)
Sequence (O75116 whole entry, species assumed): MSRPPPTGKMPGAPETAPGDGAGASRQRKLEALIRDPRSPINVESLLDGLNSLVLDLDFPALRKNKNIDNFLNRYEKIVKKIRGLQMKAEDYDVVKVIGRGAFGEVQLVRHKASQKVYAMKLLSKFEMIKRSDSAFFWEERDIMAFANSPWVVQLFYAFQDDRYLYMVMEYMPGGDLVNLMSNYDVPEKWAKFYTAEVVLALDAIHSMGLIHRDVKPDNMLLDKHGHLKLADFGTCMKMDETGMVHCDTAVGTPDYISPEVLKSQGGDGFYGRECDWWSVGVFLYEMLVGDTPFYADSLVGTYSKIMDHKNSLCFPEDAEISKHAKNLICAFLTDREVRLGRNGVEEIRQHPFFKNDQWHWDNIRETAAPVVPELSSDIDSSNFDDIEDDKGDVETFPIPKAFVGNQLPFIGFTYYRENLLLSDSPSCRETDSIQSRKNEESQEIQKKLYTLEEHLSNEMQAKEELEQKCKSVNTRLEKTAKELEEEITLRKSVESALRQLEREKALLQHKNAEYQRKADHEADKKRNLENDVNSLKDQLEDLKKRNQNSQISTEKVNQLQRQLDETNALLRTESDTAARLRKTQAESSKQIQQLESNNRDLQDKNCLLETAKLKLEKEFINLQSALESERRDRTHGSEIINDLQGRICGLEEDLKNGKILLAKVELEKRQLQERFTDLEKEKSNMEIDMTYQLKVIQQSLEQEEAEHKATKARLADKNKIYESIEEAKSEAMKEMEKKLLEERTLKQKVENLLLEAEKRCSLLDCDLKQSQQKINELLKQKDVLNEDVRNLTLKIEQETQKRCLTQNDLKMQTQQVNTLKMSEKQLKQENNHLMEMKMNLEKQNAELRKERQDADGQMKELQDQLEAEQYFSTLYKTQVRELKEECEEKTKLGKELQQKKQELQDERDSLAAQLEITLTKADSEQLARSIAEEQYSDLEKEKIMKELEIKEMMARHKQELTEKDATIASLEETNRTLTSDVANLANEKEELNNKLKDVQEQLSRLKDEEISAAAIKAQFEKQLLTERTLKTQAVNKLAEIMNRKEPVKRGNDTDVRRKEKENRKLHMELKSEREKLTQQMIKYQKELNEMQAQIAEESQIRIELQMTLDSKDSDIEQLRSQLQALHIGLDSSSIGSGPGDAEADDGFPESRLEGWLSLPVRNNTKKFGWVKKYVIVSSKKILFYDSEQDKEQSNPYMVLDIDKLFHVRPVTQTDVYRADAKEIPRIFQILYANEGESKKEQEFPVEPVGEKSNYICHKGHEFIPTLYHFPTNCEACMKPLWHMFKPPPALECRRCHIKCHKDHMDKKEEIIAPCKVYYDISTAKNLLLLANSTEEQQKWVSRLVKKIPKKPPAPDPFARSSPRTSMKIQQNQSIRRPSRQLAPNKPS
Experiment: ROCK2 assay (Caliper LABCHIP peptide phosphorylation, kinase inhibition)
Assay type: biochemical
Details: 5 μM ATP, 1.5 μM peptide substrate
Experimental: The effectiveness of compounds of the present invention as ROCK inhibitors can be determined in a 30 μL assay containing 20 mM HEPES, pH 7.5, 20 mM MgCl2, 0.015% Brij-35, 4 mM DTT, 5 μM ATP and 1.5 μM peptide substrate (FITC-AHA-AKRRRLSSLRA-OH) (SEQ ID NO. 1). Compounds were dissolved in DMSO so that the final concentration of DMSO was <2%, and the reaction was initiated with Rho kinase variants. After incubation, the reaction was terminated by the addition of EDTA and the phosphorylated and non-phosphorylated peptides separated using a LABCHIP® 3000 Reader (Caliper Life Sciences). […] Compounds were tested in dose-response format, and the inhibition of kinase activity was calculated at each concentration of compound. The inhibition data were fit using a curve-fitting program to determine the IC50; i.e., the concentration of compound required to inhibit 50% of kinase activity.
Representative Examples were tested in the ROCK2 assay described above and found having ROCK2 inhibitory activity. The ranges of the ROCK2 IC50 values are as follows: ROCK2 IC50: ++++ (<10 nM) +++ (10-100 nM) ++ (100-500 nM) + (500-2000 nM)
`O=C1C(Nc2ccc3c(c2)OCCO3)CCN1c1ccc(-c2n[nH]c(=O)c3ccccc23)cc1` (stereo not shown) [Example 50, 4-(4-{3-[(2,3-dihydro-1,4-benzodioxin-6-yl)amino]-2-oxopyrrolidin-1-yl}phenyl)-1,2-dihydrophthalazin-1-one] showed a pIC50 of 7.00 to 8.00.
For `O=C1C(Nc2ccc3c(c2)OC(F)(F)O3)CCN1c1ccc(-c2n[nH]c(=O)c3ccccc23)cc1` (stereo not shown) [Example 51, 4-(4-{3-[(2,2-difluoro-2H-1,3-benzodioxol-5-yl)amino]-2-oxopyrrolidin-1-yl}phenyl)-1,2-dihydrophthalazin-1-one], the pIC50 was 7.00 to 8.00.
In the case of `O=C1C(Nc2cccc(OC(F)(F)F)c2)CCN1c1ccc(-c2n[nH]c(=O)c3ccccc23)cc1` (stereo not shown) [Example 52, 4-[4-(2-oxo-3-{[3-(trifluoromethoxy)phenyl]amino}pyrrolidin-1-yl)phenyl]-1,2-dihydrophthalazin-1-one], the pIC50 was > 8.00.
For `O=c1[nH]nc(-c2ccc(-n3ncn(Cc4cccc(F)c4)c3=O)cc2)c2ccccc12` [Example 53, 4-(4-{4-[(3-fluorophenyl)methyl]-5-oxo-4,5-dihydro-1H-1,2,4-triazol-1-yl}phenyl)-1,2-dihydrophthalazin-1-one], the pIC50 was 6.30 to 7.00.
Compound `CC(c1ccccc1)n1cnn(-c2ccc(-c3n[nH]c(=O)c4ccccc34)cc2)c1=O` (stereo not shown) [Example 54, 4-{4-[5-oxo-4-(1-phenylethyl)-4,5-dihydro-1H-1,2,4-triazol-1-yl]phenyl}-1,2-dihydrophthalazin-1-one] has a pIC50 of 5.70 to 6.30.
`CC(C)Oc1cccc(NC2CCN(c3ccc(-c4n[nH]c(=O)c5ccccc45)cc3)C2=O)c1` (stereo not shown) [Example 57, 4-[4-(2-oxo-3-{[3-(propan-2-yloxy)phenyl]amino}pyrrolidin-1-yl)phenyl]-1,2-dihydrophthalazin-1-one] showed a pIC50 of 7.00 to 8.00.
In the case of `N#Cc1cnc(NC2CCN(c3ccc(-c4n[nH]c(=O)c5ccccc45)cc3)C2=O)s1` (stereo not shown) [Example 59, 2-({2-oxo-1-[4-(4-oxo-3,4-dihydrophthalazin-1-yl)phenyl]pyrrolidin-3-yl}amino)-1,3-thiazole-5-carbonitrile], the pIC50 was 6.30 to 7.00.
With `O=C1C(Nc2ccc(OC(F)F)cc2)CCN1c1ccc(-c2n[nH]c(=O)c3ccccc23)cc1` (stereo not shown) [Example 60, 4-[4-(3-{[4-(difluoromethoxy)phenyl]amino}-2-oxopyrrolidin-1-yl)phenyl]-1,2-dihydrophthalazin-1-one] the pIC50 was 7.00 to 8.00.
For `COc1ccccc1NC1CCN(c2ccc(-c3n[nH]c(=O)c4ccccc34)cc2)C1=O` (stereo not shown) [Example 61, 4-(4-{3-[(2-methoxyphenyl)amino]-2-oxopyrrolidin-1-yl}phenyl)-1,2-dihydrophthalazin-1-one], the pIC50 was 7.00 to 8.00.
With `O=c1[nH]nc(-c2ccc(-n3ncn(Cc4cccc(OC(F)F)c4)c3=O)cc2)c2ccccc12` [Example 63, 4-[4-(4-{[3-(difluoromethoxy)phenyl]methyl}-5-oxo-4,5-dihydro-1H-1,2,4-triazol-1-yl)phenyl]-1,2-dihydrophthalazin-1-one] the pIC50 was 6.30 to 7.00.
`CC(C)n1ccc(NC2CCN(c3ccc(-c4n[nH]c(=O)c5ccccc45)cc3)C2=O)n1` (stereo not shown) [Example 64, 4-[4-(2-oxo-3-{[1-(propan-2-yl)-1H-pyrazol-3-yl]amino}pyrrolidin-1-yl)phenyl]-1,2-dihydrophthalazin-1-one] showed a pIC50 of 7.00 to 8.00.
For `Cn1ccc(NC2CCN(c3ccc(-c4n[nH]c(=O)c5ccccc45)cc3)C2=O)n1` (stereo not shown) [Example 65, 4-(4-{3-[(1-methyl-1H-pyrazol-3-yl)amino]-2-oxopyrrolidin-1-yl}phenyl)-1,2-dihydrophthalazin-1-one], the pIC50 was 6.30 to 7.00.
With `CS(=O)(=O)c1cccc(NC2CCN(c3ccc(-c4n[nH]c(=O)c5ccccc45)cc3)C2=O)c1` (stereo not shown) [Example 67, 4-(4-{3-[(3-methanesulfonylphenyl)amino]-2-oxopyrrolidin-1-yl}phenyl)-1,2-dihydrophthalazin-1-one] the pIC50 was 7.00 to 8.00.
In the case of `CSc1cccc(NC2CCN(c3ccc(-c4n[nH]c(=O)c5ccccc45)cc3)C2=O)c1` (stereo not shown) [Example 68, 4-[4-(3-{[3-(methylsulfanyl)phenyl]amino}-2-oxopyrrolidin-1-yl)phenyl]-1,2-dihydrophthalazin-1-one], the pIC50 was 7.00 to 8.00.
With `O=C1C(Nc2cccc(F)n2)CCN1c1ccc(-c2n[nH]c(=O)c3ccccc23)cc1` (stereo not shown) [Example 69, 4-(4-{3-[(6-fluoropyridin-2-yl)amino]-2-oxopyrrolidin-1-yl}phenyl)-1,2-dihydrophthalazin-1-one] the pIC50 was 7.00 to 8.00.
`O=C1C(Nc2ccc3c(c2)CCNC3)CCN1c1ccc(-c2n[nH]c(=O)c3ccccc23)cc1` (stereo not shown) [Example 70, 4-(4-{2-oxo-3-[(1,2,3,4-tetrahydroisoquinolin-6-yl)amino]pyrrolidin-1-yl}phenyl)-1,2-dihydrophthalazin-1-one] showed a pIC50 of 6.30 to 7.00.
Compound `CC(C)c1cc(NC2CCN(c3ccc(-c4n[nH]c(=O)c5ccccc45)cc3)C2=O)n(C)n1` (stereo not shown) [Example 71, 4-[4-(3-{[1-methyl-3-(propan-2-yl)-1H-pyrazol-5-yl]amino}-2-oxopyrrolidin-1-yl)phenyl]-1,2-dihydrophthalazin-1-one] has a pIC50 of 7.00 to 8.00.
With `COc1cccc(Cn2c(C)nn(-c3ccc(-c4c[nH]c(=O)c5ccsc45)cc3)c2=O)c1` [Example 72, 4-[(3-methoxyphenyl)methyl]-3-methyl-1-(4-{4-oxo-3aH,4H,5H,7aH-thieno[3,2-c]pyridin-7-yl}phenyl)-4,5-dihydro-1H-1,2,4-triazol-5-one] the pIC50 was 5.70 to 6.30.
`N#Cc1ccnc(NC2CCN(c3ccc(-c4n[nH]c(=O)c5ccccc45)cc3)C2=O)c1` (stereo not shown) [Example 74, 2-({2-oxo-1-[4-(4-oxo-3,4-dihydrophthalazin-1-yl)phenyl]pyrrolidin-3-yl}amino)pyridine-4-carbonitrile] gave a pIC50 of 7.00 to 8.00.
With `CN1CCc2cc(NC3CCN(c4ccc(-c5n[nH]c(=O)c6ccccc56)cc4)C3=O)ccc2C1` (stereo not shown) [Example 75, 4-(4-{3-[(2-methyl-1,2,3,4-tetrahydroisoquinolin-6-yl)amino]-2-oxopyrrolidin-1-yl}phenyl)-1,2-dihydrophthalazin-1-one] the pIC50 was 5.70 to 6.30.
`COc1cccc(OC2CCN(c3ccc(-c4n[nH]c(=O)c5ccccc45)cc3)C2=O)c1` (stereo not shown) [Example 86, 4-{4-[3-(3-methoxyphenoxy)-2-oxopyrrolidin-1-yl]phenyl}-1,2-dihydrophthalazin-1-one] gave a pIC50 of 7.00 to 8.00.
Compound `COc1ccc(F)c(OC2CCN(c3ccc(-c4n[nH]c(=O)c5ccccc45)cc3)C2=O)c1` (stereo not shown) [Example 87, 4-{4-[3-(2-fluoro-5-methoxyphenoxy)-2-oxopyrrolidin-1-yl]phenyl}-1,2-dihydrophthalazin-1-one] has a pIC50 of 7.00 to 8.00.
In the case of `COc1cc(OC2CCN(c3ccc(-c4n[nH]c(=O)c5ccccc45)cc3)C2=O)ccc1F` (stereo not shown) [Example 88, 4-{4-[3-(4-fluoro-3-methoxyphenoxy)-2-oxopyrrolidin-1-yl]phenyl}-1,2-dihydrophthalazin-1-one], the pIC50 was 7.00 to 8.00.
`COc1cc(F)cc(OC2CCN(c3ccc(-c4n[nH]c(=O)c5ccccc45)cc3)C2=O)c1` (stereo not shown) [Example 89, 4-{4-[3-(3-fluoro-5-methoxyphenoxy)-2-oxopyrrolidin-1-yl]phenyl}-1,2-dihydrophthalazin-1-one] gave a pIC50 of 7.00 to 8.00.

System: IL-1 beta-induced coronary stenosis
Experiment: not given
Details: long term treatment; cited from earlier work
In the case of `O=S(=O)(c1cccc2cnccc12)N1CCCNCC1` [fasudil], the coronary constrictive remodeling is given as “promote a regression of coronary constrictive remodeling” and the coronary stenosis is given as “progressively reduce coronary stenosis”.

Reference: patent US10730858B2, “Lactam, cyclic urea and carbamate, and triazolone derivatives as potent and selective rock inhibitors” (BRISTOL-MYERS SQUIBB COMPANY, priority 2016, dated 2020)
